Data reported in patent US8415383B2, “Substituted benzamidines as antibacterial agents” (Biota Scientific Management Pty Ltd, priority 2007, dated 2013).
Converted amounts (≈) assume the structure as drawn.

tested on: Staphylococcus aureus ATCC29213; experiment: Minimal Inhibitory Concentration (MIC) testing, broth microdilution or agar dilution (CLSI); type: cell-based; conditions: Staphylococcus aureus ATCC29213; MIC scored as class; read-out: Staphylococcus aureus MICs Activity
Procedure: Minimal Inhibitory Concentration (MIC) Testing
Compounds of this invention were tested for antimicrobial activity by susceptibility testing in liquid or on solid media. MICs for compounds against each strain were determined by the broth microdilution or agar dilution method according to the guidelines of the Clinical Laboratories and Standards Institute, formerly the National Committee for Clinical Laboratory Standards (Clinical Laboratories and Standards Institute. Methods for Dilution Antimicrobial Susceptibility Tests for Bacteria That Grow Aerobically; Approved Standard—Seventh Edition. Document M7-A7. CLSI, Wayne, Pa., 2006; Clinical Laboratories and Standards Institute.
Activities were scored as ‘A’ if the MIC was less than or equal to 0.125 micrograms/ml, ‘B’ if the MIC was 0.25 to 4 micrograms/ml and ‘C’ if the MIC was greater than 4 micrograms/ml.

| MIC | Structure (SMILES) |
| --- | --- |
| > 4 µg/mL | N/C(=N\O)c1c(F)ccc(OCc2nc3cc(Cl)ccc3s2)c1F [Example 1, 3-[(5-Chloro-1,3-benzothiazol-2-yl)methoxy]-2,6-difluoro-N′-hydroxybenzenecarboximidamide] |
| < 0.125 µg/mL | N/C(=N\O)c1c(F)ccc(OCc2nc(-c3ccc(Cl)cc3)ns2)c1F [Example 5, 3-[3-(4-Chlorophenyl)-[1,2,4]thiadiazol-5-ylmethoxy]-2,6-difluoro-N-hydroxybenzamidine] |
| < 0.125 µg/mL | COc1ncc(-c2csc(COc3ccc(F)c(/C(N)=N/O)c3F)n2)s1 [Example 9, 2,6-difluoro-N′-hydroxy-3-((2′-methoxy-4,5′-bithiazol-2-yl)methoxy) benzimidamide] |
| 0.25 to 4 µg/mL (≈ 0.651 to 10.4 µM) | CO/N=C(\N)c1c(F)ccc(OCc2nc3cc(Cl)ccc3s2)c1F [Example 2, 3-[(5-Chloro-1,3-benzothiazol-2-yl)methoxy]-2,6-difluoro-N′-methoxybenzenecarboximidamide] |
| 0.25 to 4 µg/mL (≈ 0.57 to 9.11 µM) | CC(=O)O/N=C(\N)c1c(F)ccc(OCc2nc(-c3ccc(Cl)cc3)ns2)c1F [Example 6] |
| > 4 µg/mL | CS(=O)(=O)/N=C(\N)c1c(F)ccc(OCc2nc(-c3ccc(Cl)cc3)ns2)c1F [Example 8] |
| > 4 µg/mL | N=C(N)c1c(F)ccc(OCc2nc(-c3ccc(Cl)cc3)ns2)c1F [Example 7, 3-((3-(4-chlorophenyl)-1,2,4-thiadiazol-5-yl)methoxy)-2,6-difluorobenzimidamide] |
| > 4 µg/mL | N=C(N)c1c(F)ccc(OCc2nc3cc(Cl)ccc3s2)c1F [Example 3, 3-[(5-Chloro-1,3-benzothiazol-2-yl)methoxy]-2,6-difluorobenzenecarboximidamide] |

same assay, conditions: Staphylococcus aureus, ATCC29213, read-out: Staphylococcus aureus MICs Activity

| Structure (SMILES) | MIC |
| --- | --- |
| O=c1[nH]c(-c2c(F)ccc(OCc3nc(-c4ccc(Cl)cc4)no3)c2F)no1 [Example 4, 3-{3-[3-(4-Chloro-phenyl)-[1,2,4]oxadiazol-5-ylmethoxy]-2,6-difluorophenyl}-4H-[1,2,4]oxadiazol-5-one] | > 4 µg/mL |

tested on: not given; experiment: not given; conditions: not given

| melting point | Structure (SMILES) |
| --- | --- |
| 169 to 170 °C | N/C(=N\O)c1c(F)ccc(OCc2nc3cc(Cl)ccc3s2)c1F [Example 1, 3-[(5-Chloro-1,3-benzothiazol-2-yl)methoxy]-2,6-difluoro-N′-hydroxybenzenecarboximidamide] |
